In US20140039044A1, “Hydroxylated Polymethoxyflavone Compositions” (WLLGEN, INC., priority 2006, published 2014):

Columns and labels:
Type in all cases: cell-based, human
HL-60 cells [1] = assay: Cell survival assay (antiproliferative IC50); conditions: Homo sapiens; HL-60 cells; read-out: Antiproliferative IC50
Protocol: (§1) Human colon carcinoma COLO205 and HT-29 cell lines (American Type Culture Collection (ATTC), Manassas, Va.) and the leukemia cell line HL-60 were maintained at 37° C. in 5% CO2 air in RPMI 1640 medium supplemented with 10% heat-inactivated fetal bovine serum (Gibco BRL, Grand Island, N.Y.), 100 units/mL penicillin, 100 μg/mL streptomycin and 2 mM 1-glutamine. The human gastric carcinoma AGS cell line (CCRC 60102), obtained from the Food Industry Research and Development Institute (Hsinchu, Taiwan), was maintained as described above, except that DMEM/F 12 was used as the medium rather than the RPMI 1640 medium. The human breast carcinoma MCF-7 cell line MCF-7 (ATTC) was cultured in RPMI 1640 medium supplemented with 5% fetal calf serum at 37° C. in a humidified atmosphere of 5% CO2 in air. The mouse macrophage cell line RAW 264.7 was maintained in RPMI 1640 supplemented with 100 U/ml penicillin, 100 μg/ml streptomycin, and 10% heat-inactivated fetal calf serum.
(§2) Cancer cells (2×10^5) were plated in 12-well Petri dishes. The next day, the medium was changed and treated with different concentration of the test compounds or compositions for 24 h. Where individual compounds were to be tested, stock solutions of the compound was prepared to contain 200 μM of the individual hydroxylated or non-hydroxylated PMF in dimethylsulfoxide (DMSO). Control cells were treated with DMSO to a final concentration of 0.05% (v/v). Depending on the objective of the particular experiment, cells were treating with test compound or composition for 1, 3 or 6 days. At the end of incubation, cells were harvested for cell count using a hemocytometer and measuring the cellular total nucleic acid content with the CyQUANT Cell Proliferation Assay Kit (Molecular Probes).
(§3) 1 N PMF and 6 N PMF compositions containing hydroxylated PMFs, prepared as described in Section 8.3 above, 70% PMF OPE and 5,6,7,8,3′,4′-hexamethoxyflavone (nobiletin) were tested for antiproliferative activity and apoptosis-inducing activity in HL-60, AGS and COLO205 cells as described in Section 8.4 above. Antiproliferative and apoptosis-inducing activities were derived as IC50 values and AC50, values, respectively, where AC50 is the concentration required for 50% apoptosis.
(§4) The PMF compounds were assayed in vitro for cell growth inhibition and for their ability to induce apoptosis in various human cancer cells, including HL-60, AGS, COLO 205, and HT-29 cells, using methods described in Section 8.4 above. Antiproliferative (IC50) and apoptosis-inducing activity (AC50) of PMFs in the HL-60, AGS, COLO 205, and HT-29 cells are reported in Table 9, where *P<0.05, **P<0.01 and ***P<0.001 indicate statistically significant differences from the control group.

AGS cells [2] = assay: Cell survival assay (antiproliferative IC50); conditions: Homo sapiens; AGS cells; read-out: Antiproliferative IC50
Protocol: as §1, §2, §3, §4

COLO205 cells [3] = assay: Cell survival assay (antiproliferative IC50); conditions: Homo sapiens, COLO 205; COLO205 cells; read-out: Antiproliferative IC50
Protocol: as §1, §2, §3, §4

HT-29 cells = assay: Apoptotic ratio by propidium iodide flow cytometry (AC50); conditions: Homo sapiens, read-out: Apoptosis-inducing AC50
Protocol: (§5) The human cancer cells (2×10^5) were cultured in 60-mm Petri dishes and incubated for 24 h. After treated with test compounds for 24 h, the cells were then harvested, washed with PBS resuspended in 200 μL of PBS, and fixed in 800 μL of iced 100% ethanol at −20° C. After being left to stand overnight, the cell pellets were collected by centrifugation, resuspended in 1 mL of hypotonic buffer (0.5% Triton X-100 in PBS and 0.5 μg/mL RNase) and incubated at 37° C. for 30 min. Next, 1 mL of propidium iodide solution (50 μg/mL) was added, and the mixture was allowed to stand on ice for 30 min. Fluorescence emitted from the propidium iodide-DNA complex was quantitated after excitation of the fluorescent dye by FACScan cytometry (Becton Dickinson, San Jose, Calif.).
as §4

HL-60 cells [4] = assay: as above; conditions: Homo sapiens; HL-60 cells; read-out: Apoptosis-inducing AC50
Protocol: as §5, §3, §4

AGS cells [5] = assay: as above; conditions: Homo sapiens; AGS cells; read-out: Apoptosis-inducing AC50
Protocol: as §5, §3, §4

COLO205 cells [6] = assay: as above; conditions: Homo sapiens, COLO 205; COLO205 cells; read-out: Apoptosis-inducing AC50
Protocol: as §5, §3, §4

AGS cells [7] = assay: Cell cycle distribution by flow cytometry; conditions: 24 h; for Cell Cycle Distribution G0/G1 / Cell Cycle Distribution G2/M / Cell Cycle Distribution S: Table 11
Protocol: as §5
(§6) The effects of the hydrolyzed PMF-enriched compositions, nobiletin and 70% PMF OPE on cell cycle distribution were studied, following the procedures described in Section 8.4. Results for cell cycle distribution in HL-60 cells, COLO205 cells and AGS cells are provided in Table 5, Table 6 and Table 7, respectively. […] In HL-60 cells, G2/M arrest predominated in cells treated with 6N PMF concentrations ≧5 μM and with 1N PMF concentrations ≧25 μM.
(§7) Compounds A-K were evaluated in terms of their effects in arresting cell cycle progression by observing cell cycle phase distribution in cells treated with the compounds. Cells were treated with 5, 10, 25, 50, and 100 μM of one of compound A-K or DMSO (control) for 24 h and subjected to flow cytometric analysis after staining their DNA, as described above.
(§8) Similar cell cycle phase distribution studies were performed in AGS, COLO205, and HT-29 cells in response to individual PMFs, with results reported in Tables 11, 12 and 13, respectively.

COLO205 cells [8] = assay: Cell cycle distribution by flow cytometry; conditions: 24 h; for Cell Cycle Distribution G0/G1 / Cell Cycle Distribution G2/M / Cell Cycle Distribution S: COLO205 cells, Table 12
Protocol: as §5, §6, §7, §8

Molecule COc1ccc(-c2oc3c(OC)c(OC)c(OC)c(O)c3c(=O)c2OC)cc1OC [Compound C, 5-hydroxy-3,6,7,8,3′,4′-hexamethoxyflavone] has an IC50 (HL-60 cells [1]) of 8.45 ± 1.6 µM, an IC50 (AGS cells [2]) of 17 ± 0.21 µM and an IC50 (COLO205 cells [3]) of 67 ± 1.4 µM. The AC50 (HT-29 cells) was over 100 µM, the AC50 (HL-60 cells [4]) was 63.65 ± 0.61 µM and the AC50 (AGS cells [5]) was 18.9 ± 0.41 µM. The AC50 (COLO205 cells [6]) was over 100 µM, the “Cell Cycle Distribution G0/G1” value (AGS cells [7]; 5 μM) was 45.5 ± 1.06 and the “Cell Cycle Distribution G2/M” value (AGS cells [7]; 5 μM) was 9.9 ± 0.07. For the same molecule, the “Cell Cycle Distribution S” value (AGS cells [7]; 5 μM) was 45.2 ± 0.35, the “Cell Cycle Distribution G0/G1” value (AGS cells [7]; 10 μM) was 29.6 ± 1.77 and the “Cell Cycle Distribution G2/M” value (AGS cells [7]; 10 μM) was 22.0 ± 0.78. For the same molecule, the “Cell Cycle Distribution S” value (AGS cells [7]; 10 μM) was 26.1 ± 0.85, the “Cell Cycle Distribution G0/G1” value (AGS cells [7]; 25 μM) was 20.6 ± 0.42 and the “Cell Cycle Distribution G2/M” value (AGS cells [7]; 25 μM) was 47.3 ± 1.13. For the same molecule, the “Cell Cycle Distribution S” value (AGS cells [7]; 25 μM) was 31.3 ± 0.49, the “Cell Cycle Distribution G0/G1” value (AGS cells [7]; 50 μM) was 18.2 ± 0.42 and the “Cell Cycle Distribution G2/M” value (AGS cells [7]; 50 μM) was 32.7 ± 0.57. For the same molecule, the “Cell Cycle Distribution S” value (AGS cells [7]; 50 μM) was 50.1 ± 1.20, the “Cell Cycle Distribution G0/G1” value (AGS cells [7]; 100 μM) was 17.0 ± 0.07 and the “Cell Cycle Distribution G2/M” value (AGS cells [7]; 100 μM) was 32.4 ± 0.78. The “Cell Cycle Distribution S” value (AGS cells [7]; 100 μM) was 52.0 ± 0.85, the “Cell cycle arrest, in words” value (AGS cells [7]; 5-100 μM) was “decrease in G1 arrest accompanied by an increase in G2/M phase cell population” and the “Cell Cycle Distribution G0/G1” value (COLO205 cells [8]; 5 μM) was 63.55 ± 0.99. The “Cell Cycle Distribution G2/M” value (COLO205 cells [8]; 5 μM) was 6.16 ± 0.37, the “Cell Cycle Distribution S” value (COLO205 cells [8]; 5 μM) was 30.29 ± 0.61 and the “Cell Cycle Distribution G0/G1” value (COLO205 cells [8]; 10 μM) was 75.57 ± 0.83. The “Cell Cycle Distribution G2/M” value (COLO205 cells [8]; 10 μM) was 6.37 ± 1.50, the “Cell Cycle Distribution S” value (COLO205 cells [8]; 10 μM) was 18.07 ± 0.67 and the “Cell Cycle Distribution G0/G1” value (COLO205 cells [8]; 25 μM) was 74.27 ± 0.83. For the same molecule, the “Cell Cycle Distribution G2/M” value (COLO205 cells [8]; 25 μM) was 0.43 ± 0.20, the “Cell Cycle Distribution S” value (COLO205 cells [8]; 25 μM) was 25.30 ± 0.63 and the “Cell Cycle Distribution G0/G1” value (COLO205 cells [8]; 50 μM) was 58.30 ± 0.57. For the same molecule, the “Cell Cycle Distribution G2/M” value (COLO205 cells [8]; 50 μM) was 16.70 ± 0.59, the “Cell Cycle Distribution S” value (COLO205 cells [8]; 50 μM) was 25.00 ± 1.16 and the “Cell Cycle Distribution G0/G1” value (COLO205 cells [8]; 100 μM) was 51.84 ± 0.31. For the same molecule, the “Cell Cycle Distribution G2/M” value (COLO205 cells [8]; 100 μM) was 19.04 ± 0.39, the “Cell Cycle Distribution S” value (COLO205 cells [8]; 100 μM) was 29.13 ± 0.70 and the “Cell cycle arrest, in words” value (COLO205 cells [8]; COLO 205 cells, 5-100 μM) was “decrease in G1 arrest accompanied by an increase in G2/M phase cell population”.
